{"source": "patent US6433012B1", "about": "“Method for inhibiting inflammatory disease” (Large Scale Biology Corp., priority 1998, dated 2002)", "key": {"[1]": {"test_system": "angiogenesis induced by hFGF-B in the chick chorioallantoic membrane (CAM)", "assay": "Chick chorioallantoic membrane (CAM) assay, 14C-proline incorporation into collagenous protein", "assay_type": "in vivo", "parameters": "inhibition of hFGF-B-induced angiogenesis: dose or concentration left out as unconfirmed", "text": "This example illustrates the anti-angiogenic properties of methyl-3,5-diiodo-4-(4′-methoxyphenoxy)benzoate in the chick chorioallantoic membrane assay (CAM). The endpoint of the CAM assay was a quantitative determination of basement membrane biosynthesis by measuring the incorporation of ^14C-proline into Type IV collagenous protein.\nThe CAM assay involves the development of live chick embryos in Petri dishes under special sterile conditions. Therefore, only limited numbers of embryos can be used for evaluation of compounds in a single experiment. For this reason, two separate assays were conducted to test the three Biosource compounds at three concentrations per compound. In this assay, a known angiogenesis inhibitor, 2-methoxyestradiol (2-ME), was used as the positive control, and human fibroblast growth factor (hFGF) was used to induce angiogenesis in the CAM.\nFor testing, a minimum amount of acetone-methanol (1:1) was added to the test compounds for sterilization. The acetone-methanol mixture was then evaporated to dryness in a sterile hood. The compounds were dissolved dimethyl sulfoxide (DMSO) first and then diluted with saline containing methylcellulose. The final concentrations were 2% DMSO and 0.5% methylcellulose. All test solutions were added to each CAM in […].\nFresh fertile eggs were incubated for three days in a standard egg incubator. On Day 3, eggs were cracked under sterile conditions and embryos were placed in 20×100 mm plastic Petri dishes and cultivated at 37° C. in an embryo incubator with a water reservoir on the bottom shelf. Air was continuously bubbled into the water reservoir by using a small pump so that the humidity in the incubator was kept constant. Observations were made daily to ensure that all embryos were healthy. Dead or unhealthy embryos were removed from the incubator immediately to avoid contamination. On Day 9, a sterile silicone ring cup was placed on each CAM and […] of ^14C-proline with or without the test compound plus 2.5 ng of hFGF dissolved in saline containing 0.5% methylcellulose was delivered into each ring cup in a sterile hood. 2-ME was tested in parallel to serve as a reference compound. After addition of test materials, the embryos were returned to the incubator and cultivation continued. On Day 12, all embryos were transferred to a cold room at 4-10° C. The antiangiogenic effect of each test compound was determined by using the collagenase assay (Maragoudakis, et al., J. Pharm. Exp. Ther. 251:679-682 (1989)) to measure ^14C-proline incorporation into collagenous protein.\nWith the embryos placed on ice, a piece of CAM 10 mm in diameter was cut off under each ring cup and placed in a separate tube. To each tube was added 1.0 mL of phosphate-buffered saline (PBS, pH 7.3) containing 0.11 mg cycloheximide and 0.17 mg dipyridyl. The tubes were placed in a boiling water bath for 10 min and then cooled to room temperature. The PBS in each tube was discarded after centrifugation at 3000× g for 10 min. The CAM residue was washed once with 3 mL of 15% TCA and then three times with 3 mL of 5% TCA. Centrifugation was carried out as described above between each washing. At this point all non-protein bound radioactivity was removed, and the CAM containing the newly synthesized ^14C-collagenous protein was suspended in 0.9 mL of 0.1 N NaOH and 1.1 mL of HEPES buffer at pH 7.4. The pH of the sample was neutralized with 0.8 N HCl, using phenol red as indicator.\nTo digest the ^14C-collagenous protein, 7.5 units of collagenase and 500 nmol of calcium chloride in […] of HEPES buffer was added to the above samples, and mixtures were incubated at 37° C. for 4 h. The reaction was stopped by adding 1.0 mL of 20% TCA containing 5 mg of tannic acid into each tube. After vortex mixing, the samples were centrifuged at 3000× g for 10 min. […]"}, "[2]": {"test_system": "TNF-α mRNA in murine macrophage PU5-1.8 cell line", "assay": "TNF-α mRNA in LPS-stimulated macrophages (Northern blot)", "assay_type": "cell-based", "description": "The murine macrophage PU5-1.8 cell line was purchased from the American Type Culture Collection (ATCC, Rockville, Md.). Cells were grown in DMEM medium supplemented with […], 0.1 mM nonessential amino acids, 2 mM glutamine and 5% fetal bovine serum (Life Technologies, Staten Island, N.Y.). Cells were maintained in a humidified atmosphere of 5% CO2-95% air at 37° C. Cells were passages twice weekly by firmly tapping the side of the flask to dislodge the adherent cells. Both nonadherent and adherent cells were passages. Exponentially growing cells were seeded at 5×10 ^5/mL, 4mL per 60-mm dish 24 h prior to the experiment. Test compounds were delivered in 1 mL volumes of the medium added to each dish at the start of the experiment. All dishes were incubated at 37° C. in 5% CO2-95% air for 3 h.\nTotal RNA was isolated by the guanidinium-cesium chloride method as described in N. S. Waleh, J. Gallo, T. D. Grant, B. J. Murphy, R. H. Kramer and R. M. Sutherland. (1994) “Selective downregulation of integrin receptors in spheroids of squamous cell carcinoma” Cancer Res., 54:838-843. Five to 10 μg of total RNA was electrophoresed in 1% agarose gels containing 6% formaldehyde. Following electrophoresis, gels were stained with ethidium bromide to visualize the positions of 28S and 18S RNA. The RNAs were then transferred to nylon membranes (Amersham Hybond N) by capillary blotting and fixed to the filter by exposure to UV light. The blots were probed with ^32P-labeled cDNA sequences of human TNF-α obtained from the American Type Culture Collection (ATCC). The TNF-α cDNA was a 1.1 kb PstI fragment of plasmid pE4 in E. coli MM294 (ATCC 39894). Hybridizations were carried out at 42° C. in 50% formamide, 5×SSC, 5×Denhardt's solution, 0.1% SDS, and 0.3 mg/mL salmon sperm DNA. Filters were washed by 1×SSC, 0.1% SDS, twice at room temperature for 15 min and once at 55° C. in 0.1×SSC, 0.1% SDS for 1 hr. Filters were exposed to X-ray film at −70° C. using an intensifying screen (Coronex Hi-Plus).\nHybridized bands were quantified by analyzing the images obtained by using a video densitometer (Applied Imaging Corporation, Santa Clara, Calif.). Film densities were calibrated using an optical-density wedge."}, "[3]": {"test_system": "MCF-7 human breast carcinoma cells", "assay": "Chromosome condensation / prometaphase arrest", "assay_type": "cell-based", "conditions": "1 μM for 24 h"}, "purified tubulin": {"test_system": "purified tubulin", "conditions": "as a function of colchicine or vinblastine concentration", "text": "Tubulin-binding antimitotic drugs interact with the protein at diverse sites."}, "[4]": {"conditions": "Table 1 experiment, dose 8.3 μg/CAM"}, "[5]": {"conditions": "Table 1 experiment, dose 25 μg/CAM"}, "[6]": {"conditions": "Table 1 experiment, dose 75 μg/CAM"}, "[7]": {"conditions": "Table 2 experiment, dose 8.3 μg/CAM"}, "[8]": {"conditions": "Table 2 experiment, dose 25 μg/CAM"}, "[9]": {"conditions": "Table 2 experiment, dose 75 μg/CAM"}}, "note": "Marks after values point to notes of the source that are not given here."}
{"smiles": "COc1cc2c(cc1O)CC[C@@H]1[C@@H]2CC[C@]2(C)[C@@H](O)CC[C@@H]12", "note": "[2-Methoxyestradiol, 2-methoxyestradiol, reference compound]", "values": [{"measurement": "inhibition of hFGF-B-induced angiogenesis", "setting": "[1]", "result": 38, "unit": "%"}, {"measurement": "% Inhibition", "setting": "[1]; [4]", "result": 9, "unit": "%"}, {"measurement": "^14C-Proline Incorporated into Collagenous Protein (mean ± S.E.)", "setting": "[1]; [4]", "result": "5711 ± 1469", "unit": "cpm/mg-protien"}, {"measurement": "% Inhibition", "setting": "[1]; [5]", "result": 20, "unit": "%"}, {"measurement": "^14C-Proline Incorporated into Collagenous Protein (mean ± S.E.)", "setting": "[1]; [5]", "result": "5068 ± 1609", "unit": "cpm/mg-protien"}, {"measurement": "% Inhibition", "setting": "[1]; [6]", "result": 38, "unit": "%"}, {"measurement": "^14C-Proline Incorporated into Collagenous Protein (mean ± S.E.)", "setting": "[1]; [6]", "result": "3875 ± 891", "unit": "cpm/mg-protien"}, {"measurement": "% Inhibition", "setting": "[1]; [7]", "result": 6, "unit": "%"}, {"measurement": "^14C-Proline Incorporated into Collagenous Protein (mean ± S.E.)", "setting": "[1]; [7]", "result": "10499 ± 1372", "unit": "cpm/mg-protien"}, {"measurement": "% Inhibition", "setting": "[1]; [8]", "result": 35, "unit": "%"}, {"measurement": "^14C-Proline Incorporated into Collagenous Protein (mean ± S.E.)", "setting": "[1]; [8]", "result": "7303 ± 1424", "unit": "cpm/mg-protien"}, {"measurement": "% Inhibition", "setting": "[1]; [9]", "result": 38, "unit": "%"}, {"measurement": "^14C-Proline Incorporated into Collagenous Protein (mean ± S.E.)", "setting": "[1]; [9]", "result": "6984 ± 1022^b cpm/mg-protien"}]}
{"smiles": "COc1cc2c(c(OC)c1OC)-c1ccc(OC)c(=O)cc1[C@@H](NC(C)=O)CC2", "note": "[colchicine, reference compound]", "values": [{"measurement": "inhibition of TNF-α mRNA accumulation", "setting": "[2]; 10 μM added to LPS (100 ng/mL) treated cultures, 3 h", "result": 68, "unit": "%"}, {"measurement": "effect on TNF-α mRNA expression, compound only", "setting": "[2]; 10 μM, without LPS, 3 h", "result": "no effect"}, {"measurement": "total RNA integrity", "setting": "[2]; cells treated with different concentrations", "result": "intact"}, {"measurement": "chromosome condensation (prometaphase arrest)", "setting": "[3]", "result": "produced identical chromosome condensation patterns"}]}
{"smiles": "CC[C@]1(O)C[C@@H]2CN(CCc3c([nH]c4ccccc34)[C@@](C(=O)OC)(c3cc4c(cc3OC)N(C)[C@H]3[C@@](O)(C(=O)OC)[C@H](OC(C)=O)[C@]5(CC)C=CCN6CC[C@]43[C@@H]65)C2)C1", "note": "[vinblastine]", "values": [{"measurement": "effect of competitor on binding of 14C-labeled BTO-956 to tubulin", "setting": "purified tubulin", "result": "had no effect"}]}
